# Laboratory results: patent US6645918B1, “N-([1,2,4]triazoloazinyl)thiophenesulfonamide compounds and their use as herbicides” (Dow AgroSciences LLC, priority 2000, dated 2003)
# What was measured:
# [1] = tested on: morningglory (Ipomoea hederacea); experiment: Postemergence herbicidal activity, morningglory; format: in vivo; conditions: foliar spray, visual after 2 weeks, 0 no injury, 100 complete kill
# Summary of the method: (§1)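 Postemergence foliar spray to pots at 1st–2nd true leaf, grown 7–21 d at ~23–29 °C day. Spray carrier: acetone/water/IPA/DMSO/crop oil/Triton X-155; 1 ppm ≈ 1 g/ha. Read-out: visual injury 0 (none) to 100% (complete kill), 2 wk.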
# [2] = tested on: lambsquarters (Chenopodium album); experiment: Preemergence herbicidal activity, lambsquarters; format: in vivo; conditions: soil spray, visual after 3 weeks, 0 no injury, 100 complete kill or no germination
# Summary of the method: (§2)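 Herbicide applied to soil before emergence at a maximum of 4.48 kg/ha, formulated from an acetone:DMSO (97:3) stock in water with Tween 155 surfactant. Damage was estimated visually on a 0-100 percent scale three weeks later, relative to untreated pots.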
# [3] = tested on: lambsquarters (Chenopodium album); experiment: Postemergence herbicidal activity, lambsquarters; format: in vivo; conditions: foliar spray, visual after 2 weeks, 0 no injury, 100 complete kill
# Summary of the method: as §1
# [4] = tested on: cocklebur (Xanthium strumarium); experiment: Preemergence herbicidal activity, cocklebur; format: in vivo; conditions: soil spray, visual after 3 weeks, 0 no injury, 100 complete kill or no germination
# Summary of the method: as §2
# wild oats (Avena fatua) [5] = experiment: Postemergence herbicidal activity, wild oats; format: in vivo; conditions: foliar spray, visual after 2 weeks, 0 no injury, 100 complete kill
# Summary of the method: as §1
# [6] = tested on: cocklebur (Xanthium strumarium); experiment: Postemergence herbicidal activity, cocklebur; format: in vivo; conditions: foliar spray, visual after 2 weeks, 0 no injury, 100 complete kill
# Summary of the method: as §1
# wild oats (Avena fatua) [7] = experiment: Preemergence herbicidal activity, wild oats; format: in vivo; conditions: soil spray, visual after 3 weeks, 0 no injury, 100 complete kill or no germination
# Summary of the method: as §2
# [8] = tested on: barnyardgrass (Echinochloa crus-galli); experiment: Preemergence herbicidal activity, barnyardgrass; format: in vivo; conditions: soil spray, visual after 3 weeks, 0 no injury, 100 complete kill or no germination
# Summary of the method: as §2
# [9] = tested on: chickweed (Stellaria media); experiment: Postemergence herbicidal activity, chickweed; format: in vivo; conditions: foliar spray, visual after 2 weeks, 0 no injury, 100 complete kill
# Summary of the method: as §1
# [10] = tested on: giant foxtail (Setaria faberi); experiment: Postemergence herbicidal activity, giant foxtail; format: in vivo; conditions: foliar spray, visual after 2 weeks, 0 no injury, 100 complete kill
# Summary of the method: as §1
# [11] = tested on: pigweed (Amaranthus retroflexus); experiment: Preemergence herbicidal activity, pigweed; format: in vivo; conditions: soil spray, visual after 3 weeks, 0 no injury, 100 complete kill or no germination
# Summary of the method: as §2
# [12] = tested on: Rox orange sorghum (Sorghum bicolor); experiment: Preemergence herbicidal activity, Rox orange sorghum; format: in vivo; conditions: soil spray, visual after 3 weeks, 0 no injury, 100 complete kill or no germination
# Summary of the method: as §2
# [13] = tested on: blackgrass (Alopecurus myosuroides); experiment: Postemergence herbicidal activity, blackgrass; format: in vivo; conditions: foliar spray, visual after 2 weeks, 0 no injury, 100 complete kill
# Summary of the method: as §1
# [14] = tested on: giant foxtail (Setaria faberi); experiment: Preemergence herbicidal activity, giant foxtail; format: in vivo; conditions: soil spray, visual after 3 weeks, 0 no injury, 100 complete kill or no germination
# Summary of the method: as §2
# [15] = tested on: blackgrass (Alopecurus myosuroides); experiment: Preemergence herbicidal activity, blackgrass; format: in vivo; conditions: soil spray, visual after 3 weeks, 0 no injury, 100 complete kill or no germination
# Summary of the method: as §2
# [16] = tested on: Rox orange sorghum (Sorghum bicolor); experiment: Postemergence herbicidal activity, Rox orange sorghum; format: in vivo; conditions: foliar spray, visual after 2 weeks, 0 no injury, 100 complete kill
# Summary of the method: as §1
# [17] = tested on: wild poinsettia (Euphorbia heterophylla); experiment: Preemergence herbicidal activity, wild poinsettia; format: in vivo; conditions: soil spray, visual after 3 weeks, 0 no injury, 100 complete kill or no germination
# Summary of the method: as §2
# [18] = tested on: velvetleaf (Abutilion theophrasti); experiment: Postemergence herbicidal activity, velvetleaf; format: in vivo; conditions: foliar spray, visual after 2 weeks, 0 no injury, 100 complete kill
# Summary of the method: as §1
# [19] = tested on: crabgrass (Digitaria sanguinalis); experiment: Preemergence herbicidal activity, crabgrass; format: in vivo; conditions: soil spray, visual after 3 weeks, 0 no injury, 100 complete kill or no germination
# Summary of the method: as §2
# [20] = tested on: morningglory (Ipomoea hederacea); experiment: Preemergence herbicidal activity, morningglory; format: in vivo; conditions: soil spray, visual after 3 weeks, 0 no injury, 100 complete kill or no germination
# Summary of the method: as §2
# [21] = tested on: pigweed (Amaranthus retroflexus); experiment: Postemergence herbicidal activity, pigweed; format: in vivo; conditions: foliar spray, visual after 2 weeks, 0 no injury, 100 complete kill
# Summary of the method: as §1
# viola (Viola tricolor) = experiment: Postemergence herbicidal activity, viola; format: in vivo; conditions: foliar spray, visual after 2 weeks, 0 no injury, 100 complete kill
# Summary of the method: as §1
# [22] = tested on: velvetleaf (Abutilion theophrasti); experiment: Preemergence herbicidal activity, velvetleaf; format: in vivo; conditions: soil spray, visual after 3 weeks, 0 no injury, 100 complete kill or no germination
# Summary of the method: as §2
# [23] = tested on: wild buckwheat (Polygonum convolvulus); experiment: Postemergence herbicidal activity, wild buckwheat; format: in vivo; conditions: foliar spray, visual after 2 weeks, 0 no injury, 100 complete kill
# Summary of the method: as §1
compound,measurement,setting,value
CCOc1cscc1S(=O)(=O)Nc1nc2c(OC)ccc(OC)n2n1 [Compound 11],IPOHE postemergence injury score 0-100,[1]; 15.6 ppm,70%
same,CHEAL preemergence injury score 0-100,[2]; 4.4 g/Ha,95%
same,CHEAL postemergence injury score 0-100,[3]; 15.6 ppm,95%
same,XANST preemergence injury score 0-100,[4]; 4.4 g/Ha,50%
same,AVEFA postemergence injury score 0-100,wild oats (Avena fatua) [5]; 15.6 ppm,85%
same,XANST postemergence injury score 0-100,[6]; 15.6 ppm,90%
same,AVEFA preemergence injury score 0-100,wild oats (Avena fatua) [7]; 4.4 g/Ha,70%
same,ECHCG preemergence injury score 0-100,[8]; 4.4 g/Ha,10%
same,STEME postemergence injury score 0-100,[9]; 15.6 ppm,80%
same,SETFA postemergence injury score 0-100,[10]; 15.6 ppm,100%
same,AMARE preemergence injury score 0-100,[11]; 4.4 g/Ha,90%
same,SORBI preemergence injury score 0-100,[12]; 4.4 g/Ha,98%
same,ALOMY postemergence injury score 0-100,[13]; 15.6 ppm,75%
same,SETFA preemergence injury score 0-100,[14]; 4.4 g/Ha,100%
same,ALOMY preemergence injury score 0-100,[15]; 4.4 g/Ha,100%
same,SORBI postemergence injury score 0-100,[16]; 15.6 ppm,90%
same,EPHHL preemergence injury score 0-100,[17]; 4.4 g/Ha,50%
same,ABUTH postemergence injury score 0-100,[18]; 15.6 ppm,85%
same,DIGSA preemergence injury score 0-100,[19]; 4.4 g/Ha,40%
same,IPOHE preemergence injury score 0-100,[20]; 4.4 g/Ha,30%
same,AMARE postemergence injury score 0-100,[21]; 15.6 ppm,100%
same,VIOTR postemergence injury score 0-100,viola (Viola tricolor); 15.6 ppm,75%
same,ABUTH preemergence injury score 0-100,[22]; 4.4 g/Ha,80%
same,POLCO postemergence injury score 0-100,[23]; 15.6 ppm,80%
"COc1ccsc1S(=O)(=O)Nc1nc2c(OC)cnc(OC)n2n1 [Compound 1, 3-Methoxy-N-(5,8-dimethoxy[1,2,4]triazolo[1,5-c]pyrimidin-2-yl)thiophene-2-sulfonamide]",IPOHE postemergence injury score 0-100,[1]; 3.9 ppm,85%
same,CHEAL preemergence injury score 0-100,[2]; 17.5 g/Ha,98%
same,CHEAL postemergence injury score 0-100,[3]; 3.9 ppm,75%
same,XANST preemergence injury score 0-100,[4]; 17.5 g/Ha,70%
same,AVEFA postemergence injury score 0-100,wild oats (Avena fatua) [5]; 3.9 ppm,99%
same,XANST postemergence injury score 0-100,[6]; 3.9 ppm,50%
same,AVEFA preemergence injury score 0-100,wild oats (Avena fatua) [7]; 17.5 g/Ha,100%
same,ECHCG preemergence injury score 0-100,[8]; 17.5 g/Ha,100%
same,STEME postemergence injury score 0-100,[9]; 3.9 ppm,75%
same,SETFA postemergence injury score 0-100,[10]; 3.9 ppm,100%
same,AMARE preemergence injury score 0-100,[11]; 17.5 g/Ha,100%
same,SORBI preemergence injury score 0-100,[12]; 17.5 g/Ha,100%
same,ALOMY postemergence injury score 0-100,[13]; 3.9 ppm,95%
same,SETFA preemergence injury score 0-100,[14]; 17.5 g/Ha,100%
same,ALOMY preemergence injury score 0-100,[15]; 17.5 g/Ha,100%
same,SORBI postemergence injury score 0-100,[16]; 3.9 ppm,98%
same,melting point,,227 to 228 °C
same,EPHHL preemergence injury score 0-100,[17]; 17.5 g/Ha,100%
same,ABUTH postemergence injury score 0-100,[18]; 3.9 ppm,75%
same,DIGSA preemergence injury score 0-100,[19]; 17.5 g/Ha,100%
same,IPOHE preemergence injury score 0-100,[20]; 17.5 g/Ha,85%
same,AMARE postemergence injury score 0-100,[21]; 3.9 ppm,95%
same,VIOTR postemergence injury score 0-100,viola (Viola tricolor); 3.9 ppm,70%
same,ABUTH preemergence injury score 0-100,[22]; 17.5 g/Ha,98%
same,POLCO postemergence injury score 0-100,[23]; 3.9 ppm,98%
COc1cc(OC)n2nc(NS(=O)(=O)c3cscc3OC)nc2n1 [Compound 15],IPOHE postemergence injury score 0-100,[1]; 15.6 ppm,70%
same,CHEAL preemergence injury score 0-100,[2]; 8.8 g/Ha,98%
same,CHEAL postemergence injury score 0-100,[3]; 15.6 ppm,90%
same,XANST preemergence injury score 0-100,[4]; 8.8 g/Ha,60%
same,AVEFA postemergence injury score 0-100,wild oats (Avena fatua) [5]; 15.6 ppm,95%
same,XANST postemergence injury score 0-100,[6]; 15.6 ppm,90%
same,AVEFA preemergence injury score 0-100,wild oats (Avena fatua) [7]; 8.8 g/Ha,100%
same,ECHCG preemergence injury score 0-100,[8]; 8.8 g/Ha,80%
same,STEME postemergence injury score 0-100,[9]; 15.6 ppm,90%
same,SETFA postemergence injury score 0-100,[10]; 15.6 ppm,100%
same,AMARE preemergence injury score 0-100,[11]; 8.8 g/Ha,85%
same,SORBI preemergence injury score 0-100,[12]; 8.8 g/Ha,100%
same,ALOMY postemergence injury score 0-100,[13]; 15.6 ppm,80%
same,SETFA preemergence injury score 0-100,[14]; 8.8 g/Ha,100%
same,ALOMY preemergence injury score 0-100,[15]; 8.8 g/Ha,100%
same,SORBI postemergence injury score 0-100,[16]; 15.6 ppm,100%
same,EPHHL preemergence injury score 0-100,[17]; 8.8 g/Ha,90%
same,ABUTH postemergence injury score 0-100,[18]; 15.6 ppm,70%
same,DIGSA preemergence injury score 0-100,[19]; 8.8 g/Ha,100%
same,IPOHE preemergence injury score 0-100,[20]; 8.8 g/Ha,70%
same,AMARE postemergence injury score 0-100,[21]; 15.6 ppm,90%
same,VIOTR postemergence injury score 0-100,viola (Viola tricolor); 15.6 ppm,70%
same,ABUTH preemergence injury score 0-100,[22]; 8.8 g/Ha,90%
same,POLCO postemergence injury score 0-100,[23]; 15.6 ppm,80%
COc1csc(Cl)c1S(=O)(=O)Nc1nc2c(Cl)cnc(OC)n2n1 [Compound 20],IPOHE postemergence injury score 0-100,[1]; 31.3 ppm,75%
same,CHEAL preemergence injury score 0-100,[2]; 17.5 g/Ha,70%
same,CHEAL postemergence injury score 0-100,[3]; 31.3 ppm,75%
same,XANST preemergence injury score 0-100,[4]; 17.5 g/Ha,60%
same,AVEFA postemergence injury score 0-100,wild oats (Avena fatua) [5]; 31.3 ppm,70%
same,XANST postemergence injury score 0-100,[6]; 31.3 ppm,100%
same,AVEFA preemergence injury score 0-100,wild oats (Avena fatua) [7]; 17.5 g/Ha,90%
same,ECHCG preemergence injury score 0-100,[8]; 17.5 g/Ha,95%
same,STEME postemergence injury score 0-100,[9]; 31.3 ppm,85%
same,SETFA postemergence injury score 0-100,[10]; 31.3 ppm,50%
same,AMARE preemergence injury score 0-100,[11]; 17.5 g/Ha,80%
same,SORBI preemergence injury score 0-100,[12]; 17.5 g/Ha,90%
same,ALOMY postemergence injury score 0-100,[13]; 31.3 ppm,30%
same,SETFA preemergence injury score 0-100,[14]; 17.5 g/Ha,50%
same,ALOMY preemergence injury score 0-100,[15]; 17.5 g/Ha,90%
same,SORBI postemergence injury score 0-100,[16]; 31.3 ppm,85%
same,EPHHL preemergence injury score 0-100,[17]; 17.5 g/Ha,50%
same,ABUTH postemergence injury score 0-100,[18]; 31.3 ppm,85%
same,DIGSA preemergence injury score 0-100,[19]; 17.5 g/Ha,85%
same,IPOHE preemergence injury score 0-100,[20]; 17.5 g/Ha,70%
same,AMARE postemergence injury score 0-100,[21]; 31.3 ppm,95%
same,VIOTR postemergence injury score 0-100,viola (Viola tricolor); 31.3 ppm,90%
same,ABUTH preemergence injury score 0-100,[22]; 17.5 g/Ha,80%
same,POLCO postemergence injury score 0-100,[23]; 31.3 ppm,90%
